Assay results: patent US20220175713A1, “DEPSIDE TRIMERIC COMPOUNDS FOR SKELETAL MUSCLE MODULATION” (SOCIETE DES PRODUITS NESTLE S.A., priority 2019, published 2022)

Test system: mouse hindlimb muscles injured with cardiotoxin
Experiment: In vivo muscle regeneration after intramuscular cardiotoxin injury
Conditions: mice, oral gavage 100 mg/kg body weight once a day from one week before injury, muscles harvested 5 days after injury, vs. water control, FIG. 6
Protocol: Early phase of expansion and subsequent phase of myogenic differentiation of Muscle Stem Cells were evaluated by counting the number of Pax7+ cells (A) and myogenin+ cells (B), respectively. Data are expressed as number of cells per area of injured muscle. The size of each newly formed myofiber (C) has been measured based on the expression of the eMHC and laminin that allow to recognize and delineate these nascent myofibers. Results are shown as mean myofiber cross-sectional area (μm^2).
In order to reproduce the physiological process of muscle regeneration that occurs in adult skeletal muscles in response to injury or disease, we performed an intramuscular injection of cardiotoxin into mouse hindlimb muscles. One week prior to the induction of the muscle injury, mice were given by oral gavage gyrophoric acid (at 100 mg/kg body weight) vs. water control. […] Several myogenic markers were then measured. […]
Early phase of expansion and subsequent phase of myogenic differentiation of Muscle Stem Cells were evaluated by counting the number of Pax7+ cells (FIG. 6A) and myogenin+ cells (FIG. 6B), respectively. Data are expressed as number of cells per area of injured muscle. The size of each newly formed myofiber (FIG. 6C) has been measured based on the expression of the eMHC and laminin that allow to recognize and delineate these nascent myofibers. […]

**Q.** With `Cc1cc(OC(=O)c2c(C)cc(OC(=O)c3c(C)cc(O)cc3O)cc2O)cc(O)c1C(=O)O` [gyrophoric acid, 4-[4-(2,4-dihydroxy-6-methylbenzoyl)oxy-2-hydroxy-6-methylbenzoyl]oxy-2-hydroxy-6-methylbenzoic acid] as the molecule, how does the “in vivo muscle regeneration process (Pax7+ cells, myogenin+ cells, size of newly formed myofibers)” value read?
**A.** Its value is “Able to Promote the In Vivo Muscle Regeneration Process”.
